Results published in patent US5286737A, “Method for inhibiting aromatase” (Kureha Kagaku Kogyo Kabushiki Kaisha, priority 1992, dated 1994).
Read-outs that look alike come from different tables or passages of the source.

Legend:
aromatase = target: T1, aromatase (Homo sapiens, UniProt P11511); experiment: Aromatase inhibitory activity (H14COOH release from [19-14C]4-androstene-3,17-dione, human placenta microsomes); type: biochemical
T1 construct: microsomes arising from human placenta (0.1 mg/ml, protein concentration); from tissue; host or cells: human placenta microsomes
T1 sequence (P11511 1-503): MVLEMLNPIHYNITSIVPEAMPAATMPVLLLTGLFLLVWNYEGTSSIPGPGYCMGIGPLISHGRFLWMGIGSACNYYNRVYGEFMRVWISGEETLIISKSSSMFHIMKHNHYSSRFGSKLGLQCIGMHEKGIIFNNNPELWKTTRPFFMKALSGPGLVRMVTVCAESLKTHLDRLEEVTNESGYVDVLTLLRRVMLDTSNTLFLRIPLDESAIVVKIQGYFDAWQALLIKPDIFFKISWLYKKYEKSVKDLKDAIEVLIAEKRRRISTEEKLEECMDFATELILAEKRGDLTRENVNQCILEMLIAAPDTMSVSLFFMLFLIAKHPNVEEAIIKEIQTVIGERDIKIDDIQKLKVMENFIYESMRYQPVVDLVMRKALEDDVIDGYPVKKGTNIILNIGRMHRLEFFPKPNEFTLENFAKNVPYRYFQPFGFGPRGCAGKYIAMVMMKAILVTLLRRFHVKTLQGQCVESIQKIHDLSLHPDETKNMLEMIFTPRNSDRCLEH
Experimental: The aromatase inhibitory activity was measured in the manner described by Covey, D. F., Biochem. and Biophys. Res. Commun., 157 (1) 81-86 (1988). The inhibitory activity of the aromatase with the compounds was evaluated in a 50% inhibitory concentration (IC50) of the aromatase activity.
Aromatase activity was measured in the manner described by Covey, D. F., Biochem. Biophys. Res. Commun. 157 (1), 81-86 (1988).
The inhibitory activity of the aromatase with the compounds was evaluated in 50% inhibitory concentration (IC50) of the aromatase.
An aromatase base was taken from microsomes of human placenta and [19-^14 C]4-androstene-3,17 dione was used as a substrate. H^14 COOH was released into a reaction mixture after aromatization and its radioactivity was measured to evaluate the aromatase activity.
The inhibitory activity of the aromatase and the concentration of the compounds were depicted in a graph from which the IC50 was calculated.
To a solution of phosphoric acid buffer, [19-^14 C]4-androstene-3,17-dione (1×10^-6 M, 2 kBq/ml), microsomes arising from human placenta (0.1 mg/ml, protein concentration), coenzyme (2×10^-3 M, […]), glucose-6-phosphoric acid (4×10^-3 M), and glucose-6-phosphoric acid dehydrogenase (4U/ml) were added and reacted under stirring at 37° C. for 30 min.
The compound that was dissolved in DMSO was added into the reaction mixture and the final concentration of MDSO was in the range of 0.1 to 0.55% by volume. Chloroform (5 ml) was then added into the reaction mixture to terminate the reaction and to allow for recovery of the H^14 COOH in a water layer. The collected water layer (0.1 ml) was added in liquid scintillation cocktail (Atomlight, duPont, 4 ml) to measure its radioactivity. 4-Hydroxyandrostenedione was used as a positive control.

mastocarcinoma = experiment: Inhibition of tumor growth in rats with mastocarcinoma after 7,12-dimethylbenzanthracene; type: in vivo, Sprague-Dawley rats; details: Rattus norvegicus, 600 h, read-out: I.R. (inhibition rate of tumor growth)
Experimental: Female Sprague-Dawley rates aged 50 days were orally given 7,12-dimethylbenzanthracene (15 mg/kg) and observed for two months. The rats that developed spontaneous mastocarcinoma were selected and divided into three groups of 15 animals.
The first group was administered daily an ip injection for 20 consecutive days in an amount of 20 mg/kg (body weight) of the compounds in a physiological salt solution (10 ml).
The second group was also treated in the same manner as the first group except that 4-hydroxyandrostenedione was used as a positive control.
The third group was administered only an amount of 10 ml of a physiological salt solution.
After 5 days from the last injection, the rats were sacrificed to enucleate tumors.
The tumors were weighed and the mean tumor weight (T) of the first and the second groups was calculated. The mean tumor weight (C) of the third group was also calculated. […] [formula]

[1] = female Sprague-Dawley rats, daily ip 20 mg/kg for 20 consecutive days, tumors weighed 5 days after last injection
[2] = microsomes of human placenta, 0.1 mg/ml protein, substrate [19-14C]4-androstene-3,17-dione 1×10^-6 M, 37° C., 30 min, read-out: 50% inhibitory concentration (IC50) of the aromatase activity

C[C@]12CCC(=O)C(O)=C1CC[C@@H]1[C@@H]2CC[C@]2(C)C(=O)CC[C@@H]12 [Control, 4-Hydroxyandrostenedione, reference compound]
IC50 (aromatase): 20 µM

N#Cc1ccc(CC2CCCC2(O)Cn2cncn2)cc1 (stereo not shown) [compound 5]
inhibition in vivo at 20 mg/kg (mastocarcinoma; [1]): 60% | IC50 (aromatase): 7.3 µM

OC1(Cn2ccnc2)CCCC1Cc1ccc(F)cc1F (stereo not shown) [Comp. No. 10, 2-(2,4-Difluorobenzyl)-1-(imidazoly-1-yl-methyl)cyclopentanol]
inhibition in vivo at 20 mg/kg (mastocarcinoma; [1]): 85% | IC50 (aromatase): 0.48 µM

CC1(C)CCC(Cc2ccccc2-c2ccccc2)C1(O)Cn1ccnc1 (stereo not shown) [compound 7]
inhibition in vivo at 20 mg/kg (mastocarcinoma; [1]): 58% | IC50 (aromatase; [2]): 3.7 µM

CC(C)(C)c1ccc(CC2CCC(C)(C)C2(O)Cn2ccnc2)cc1 (stereo not shown) [compound 12]
inhibition in vivo at 20 mg/kg (mastocarcinoma; [1]): 73% | IC50 (aromatase): 4.2 µM

CC(C)(C)c1ccc(CC2CCC(C)(C)C2(O)Cn2cncn2)cc1 (stereo not shown) [compound 11]
inhibition in vivo at 20 mg/kg (mastocarcinoma; [1]): 71% | IC50 (aromatase): 2.6 µM

CC1(C)CCC(Cc2ccc(-c3ccccc3)cc2)C1(O)Cn1ccnc1 (stereo not shown) [compound 8]
inhibition in vivo at 20 mg/kg (mastocarcinoma; [1]): 60% | IC50 (aromatase; [2]): 4.1 µM

CC(C)c1ccc(CC2CCC(C)(C)C2(O)Cn2ccnc2)cc1 (stereo not shown) [compound 14]
inhibition in vivo at 20 mg/kg (mastocarcinoma; [1]): 63% | IC50 (aromatase): 6 µM

N#Cc1ccc(CC2CCCC2(O)Cn2ccnc2)cc1 (stereo not shown) [compound 6]
inhibition in vivo at 20 mg/kg (mastocarcinoma; [1]): 53% | IC50 (aromatase; [2]): 4.5 µM

CC1(C)CCC(Cc2ccc(C(F)(F)F)cc2)C1(O)Cn1cncn1 (stereo not shown) [compound 18]
inhibition in vivo at 20 mg/kg (mastocarcinoma; [1]): 65% | IC50 (aromatase): 7.2 µM

CC(C)c1ccc(CC2CCCC2(O)Cn2cncn2)cc1 (stereo not shown) [compound 20]
inhibition in vivo at 20 mg/kg (mastocarcinoma; [1]): 60% | IC50 (aromatase): 4.3 µM

CC1(C)CCC(Cc2ccc(Cl)cc2)C1(O)Cn1cncn1 (stereo not shown) [compound 15]
inhibition in vivo at 20 mg/kg (mastocarcinoma; ip): 74% | IC50 (aromatase): 4.7 µM

OC1(Cn2ccnc2)CCCC1Cc1ccc(Cl)cc1 (stereo not shown) [compound 4]
inhibition in vivo at 20 mg/kg (mastocarcinoma; [1]): 74% | IC50 (aromatase): 5 µM

CC(C)c1ccc(CC2CCCC2(O)Cn2ccnc2)cc1 (stereo not shown) [compound 21]
inhibition in vivo at 20 mg/kg (mastocarcinoma; [1]): 72% | IC50 (aromatase; [2]): 6.3 µM

OC1(Cn2cncn2)CCCC1Cc1ccc(F)cc1 (stereo not shown) [Comp. No. 1, 2-(p-Fluorobenzyl)-1-(1,2,4-triazoly-1-yl-methyl)cyclopentanol]
inhibition in vivo at 20 mg/kg (mastocarcinoma; [1]): 60% | IC50 (aromatase): 3.5 µM

CC1(C)CCC(Cc2ccc(Cl)cc2)C1(O)Cn1ccnc1 (stereo not shown) [compound 16]
inhibition in vivo at 20 mg/kg (mastocarcinoma; [1]): 83% | IC50 (aromatase): 0.3 µM

CC(C)c1ccc(CC2CCC(C)(C)C2(O)Cn2cncn2)cc1 (stereo not shown) [compound 13]
inhibition in vivo at 20 mg/kg (mastocarcinoma; [1]): 55% | IC50 (aromatase): 8.4 µM

OC1(Cn2ccnc2)CCCC1Cc1ccc(F)cc1 (stereo not shown) [Comp. No. 2, 2-(-Fluorobenzyl)-1-(imidazoly-1-ylmethyl)cyclopentanol]
inhibition in vivo at 20 mg/kg (mastocarcinoma; [1]): 70% | IC50 (aromatase): 7 µM

CC1(C)CCC(Cc2ccc(C(F)(F)F)cc2)C1(O)Cn1ccnc1 (stereo not shown) [compound 19]
inhibition in vivo at 20 mg/kg (mastocarcinoma; [1]): 63% | IC50 (aromatase): 5.5 µM

OC1(Cn2cncn2)CCCC1Cc1ccc(Cl)cc1 (stereo not shown) [compound 3]
inhibition in vivo at 20 mg/kg (mastocarcinoma; [1]): 64% | IC50 (aromatase): 3.8 µM

OC1(Cn2cncn2)CCCC1Cc1ccc(F)cc1F (stereo not shown) [Comp. No. 9, 2-(2,4-Difluorobenzyl)-1-(1,2,4-triazoly-1-yl-methyl)cyclopentanol]
inhibition in vivo at 20 mg/kg (mastocarcinoma; [1]): 72% | IC50 (aromatase): 7.5 µM

CC1(C)CCC(Cc2ccc(F)cc2F)C1(O)Cn1ccnc1 (stereo not shown) [compound 17]
inhibition in vivo at 20 mg/kg (mastocarcinoma; [1]): 67% | IC50 (aromatase): 0.4 µM
